Data from ChEMBL document CHEMBL6078716, “Advances in Psychedelic Therapeutics: Novel Prodrugs and Derivatives for Enhanced Mental Health Treatment” (ACS Med Chem Lett, 2024).

Columns and labels:
[1] = molecular target: T1, 5-hydroxytryptamine receptor 1A (Homo sapiens, UniProt P08908); assay: Binding affinity to 5-HT1A receptor (unknown origin) expressed in HEK293 cells assessed as inhibition constant; format: cell-based
T1 sequence (P08908 whole entry): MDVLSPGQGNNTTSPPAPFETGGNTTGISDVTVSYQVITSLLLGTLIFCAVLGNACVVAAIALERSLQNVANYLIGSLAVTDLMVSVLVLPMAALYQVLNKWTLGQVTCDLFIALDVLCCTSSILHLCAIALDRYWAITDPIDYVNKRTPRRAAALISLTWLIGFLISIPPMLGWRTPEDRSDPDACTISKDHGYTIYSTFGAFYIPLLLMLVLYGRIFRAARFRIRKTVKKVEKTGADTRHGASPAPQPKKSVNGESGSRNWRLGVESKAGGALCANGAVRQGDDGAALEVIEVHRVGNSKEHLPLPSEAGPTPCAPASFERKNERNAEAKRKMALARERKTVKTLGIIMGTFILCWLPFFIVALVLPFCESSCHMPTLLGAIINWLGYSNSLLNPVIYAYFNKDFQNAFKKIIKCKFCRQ

[2] = molecular target: 5-hydroxytryptamine receptor 2A (Homo sapiens, UniProt P28223); assay: Binding affinity to 5-HT2A receptor (unknown origin) expressed in HEK293 cells assessed as inhibition constant; format: cell-based
5-hydroxytryptamine receptor 2A, sequence (P28223 whole entry): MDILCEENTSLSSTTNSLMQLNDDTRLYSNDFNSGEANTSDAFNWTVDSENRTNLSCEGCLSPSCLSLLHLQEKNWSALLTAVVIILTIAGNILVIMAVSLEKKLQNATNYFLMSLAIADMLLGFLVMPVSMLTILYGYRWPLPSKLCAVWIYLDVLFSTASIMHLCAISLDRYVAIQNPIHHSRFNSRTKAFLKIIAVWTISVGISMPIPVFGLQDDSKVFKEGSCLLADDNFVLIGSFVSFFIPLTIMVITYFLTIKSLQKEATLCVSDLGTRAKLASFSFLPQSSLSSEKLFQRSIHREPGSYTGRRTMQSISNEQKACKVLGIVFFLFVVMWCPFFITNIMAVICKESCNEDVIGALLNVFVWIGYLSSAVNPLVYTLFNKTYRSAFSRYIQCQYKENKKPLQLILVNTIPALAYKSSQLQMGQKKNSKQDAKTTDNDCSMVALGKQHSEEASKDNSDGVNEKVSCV

| SMILES | Ki [1] | Ki [2] |
| --- | --- | --- |
| CN(C)CCc1c[nH]c2cccc(O)c12 [PSILOCIN] | 0.567 µM | – |
| CN(C)CCc1c[nH]c2cccc(OP(=O)(O)O)c12 [PSILOCYBIN] | > 10 µM | > 10 µM |
